# Laboratory results from US10561657B2, “Pyrrolopyrimidine compound” (CENTAURUS BIOPHARMA CO., LTD., priority 2014, dated 2020).
# Counter-ions that a name gives are not always drawn. Like-named read-outs stand apart in the source and are kept apart here.
# Experiments:
# Ba/F3-JAK2V617F tumor = assay: Efficacy in mouse subcutaneous xenograft tumor model; format: in vivo, Balb/c nude mice; settings: for TGI (%) 3 d: day 3; for TGI (%) 7 d: day 7; for TGI (%) 10 d: day 10; for TGI (%) 14 d: day 14
# Procedure: 3. Assay for Efficacy in Mouse Subcutaneous Xenograft Tumor Model SPF grade Balb/c nude mice are female and 5-6 weeks old. 0.1 mL of the suspension of Ba/F3-JAK2V617F cells in serum-free culture medium (containing 1×10^7 cells, 50% MatriGel) was subcutaneously injected into right flank of each mouse. When the average tumor volume reached about 500 mm^3, the tumor-bearing mice were sacrificed. The tumor tissues were aseptically picked up, and cut into small pieces, which were subcutaneously implanted into both flanks of Balb/c nude mice. When the average tumor volume reached about 100 mm^3, each mouse was marked according to serial numbers, and their tumor sizes and body weights were measured, respectively. These mice were randomly allocated from small to large in terms of tumor volume, and each group of animals was appropriately adjusted to make the average body weights of the groups in a same level. […] The administration was started on the day of allocation, twice per day for 14 days. During the administration, the tumor volumes and body weights were measured twice per week. The mice were sacrificed at the end of the experiment, and the spleen was isolated and weighted. During the experiment, the maximum long diameter (L) and the maximum transverse diameter in the vertical direction (W) of the tumor were measured to calculate the tumor volume (V) according to V (mm^3)=L×W^2/2. […] T0 represents the average tumor volume of the treatment group when being allocated; Vt represents the average tumor volume measured every time in the control group; V0 represents the average tumor volume of the control group when being allocated.
# [1] = Pharmacokinetic assay in adult female SD rats (30 mg/kg oral); format: in vivo; settings: female, Sprague-Dawley, rat, plasma, po, 30 mg/kg
# [2] = biological target: JAK2 kinase (wild type, JAK2^WT) (Homo sapiens (Human), UniProt O60674); assay: HTRF assay for enzymatic activity (IC50), JAK2 wild type; format: biochemical; settings: ATP at Km, 120 min, 23 °C
# Chain of JAK2 kinase (wild type, JAK2^WT) (O60674 whole entry): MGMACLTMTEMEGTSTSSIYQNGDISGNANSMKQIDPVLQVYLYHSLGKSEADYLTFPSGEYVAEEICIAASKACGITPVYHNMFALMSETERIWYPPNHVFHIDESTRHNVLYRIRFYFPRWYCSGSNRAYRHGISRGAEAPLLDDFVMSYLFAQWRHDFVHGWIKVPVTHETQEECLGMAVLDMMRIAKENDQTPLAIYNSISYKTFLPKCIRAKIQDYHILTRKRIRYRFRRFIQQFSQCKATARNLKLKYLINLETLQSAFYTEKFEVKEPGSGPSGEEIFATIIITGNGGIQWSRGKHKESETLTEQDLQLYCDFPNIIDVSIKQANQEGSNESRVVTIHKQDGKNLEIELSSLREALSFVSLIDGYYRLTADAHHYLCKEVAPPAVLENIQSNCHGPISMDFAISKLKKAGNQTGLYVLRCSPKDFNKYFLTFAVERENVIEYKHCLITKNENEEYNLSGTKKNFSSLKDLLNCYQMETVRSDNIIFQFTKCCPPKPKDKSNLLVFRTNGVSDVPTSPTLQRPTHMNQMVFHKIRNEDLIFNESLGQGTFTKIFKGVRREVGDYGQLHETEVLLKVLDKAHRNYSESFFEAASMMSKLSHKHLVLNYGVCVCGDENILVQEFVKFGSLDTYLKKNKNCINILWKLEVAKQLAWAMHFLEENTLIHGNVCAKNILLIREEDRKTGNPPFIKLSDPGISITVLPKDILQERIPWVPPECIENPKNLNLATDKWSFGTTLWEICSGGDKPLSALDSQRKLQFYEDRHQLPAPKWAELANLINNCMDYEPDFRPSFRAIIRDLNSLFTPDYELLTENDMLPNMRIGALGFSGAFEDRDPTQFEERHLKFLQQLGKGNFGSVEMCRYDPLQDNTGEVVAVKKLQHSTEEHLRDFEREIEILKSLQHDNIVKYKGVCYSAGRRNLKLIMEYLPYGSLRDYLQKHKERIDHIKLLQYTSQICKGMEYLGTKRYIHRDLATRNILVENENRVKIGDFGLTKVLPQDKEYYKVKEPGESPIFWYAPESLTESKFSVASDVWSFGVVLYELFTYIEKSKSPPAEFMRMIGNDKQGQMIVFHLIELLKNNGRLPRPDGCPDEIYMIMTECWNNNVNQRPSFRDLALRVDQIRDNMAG
# Procedure: (§1) 1. Assay for Enzymatic Activity (IC50) of Compounds
# (§2) A testing platform for kinase activity of JAK2 (wild type and V617F mutant type) was established based on Homogeneous Time-Resolved Fluorescence (HTRF) assay, and the activities of the compounds were tested using the platform. The compounds were subjected to three-fold gradient dilutions with 100% DMSO with a starting concentration of 1 mM (11 dilutions in total). 4 μL of each dilution was added to 96 μL of reaction buffer (50 mM HEPES, pH 7.4, 10 mM MgCl2, 1 mM EGTA, 0.01% Tween-20, 0.005% BAS, 2 mM DTT) and mixed homogeneously. […] The mixture was mixed homogeneously by centrifugation. […] The plate was incubated in the incubator for 1 hr, and then the fluorescence values were read on Envision (available from PerkinElmer). […] The enzymatic activity was representd by a ratio of the two readout at the two emission wavelengths. The enzymatic activity for each compound was tested at 11 concentrations, and IC50 values of the compounds were obtained by calculating the data using GraFit6.0 software (Erithacus Software). 2. Assay for cell proliferation activity (IC50) of compounds
# [3] = biological target: JAK2 kinase (V617F mutant type, JAK2^V617F) (Homo sapiens (Human), UniProt O60674, V617F); assay: HTRF assay for enzymatic activity (IC50), JAK2 V617F mutant type; format: biochemical; settings: ATP at Km, 120 min, 23 °C
# Chain of JAK2 kinase (V617F mutant type, JAK2^V617F) (O60674 whole entry V617F): as the sequence (O60674 whole entry) above, with V617F counted along it
# Procedure: as §1, §2
# HEL (JAK2^V617F) cells = assay: Cell proliferation assay (CellTiter-Blue, 72 hrs); format: cell-based; settings: Homo sapiens; 72 hrs of treatment
# Procedure: In the tests of compounds, HEL cells were plated in a 96-well plate (Corning) at a density of 3000 cells/195 μL per well. The compounds were subjected to three-fold gradient dilutions with a starting concentration of 10 mM (11 dilutions in total). […] 5 μL of the resulting liquid was then added to 195 μL of the cell culture medium (the final concentration in DMSO is 0.1%, v/v). After 72 hrs of treatment, 35 μL of CellTiter-Blue® (available from Promega) was added. The fluorescent signals were detected on Flex Station3 (Molecular Devices) in accordance with the protocols described in the instructions. The IC50 values of the compounds in inhibiting cell proliferation were calculated using GraphPad Prism 5.0.
# in vivo = settings: male, Sprague-Dawley, rat, plasma, po, 5 mg/kg
# Procedure: The rats were allocated with three rats per group, and separately orally administered the suspension of a sample to be tested (5 mg/kg or 15 mg/kg) by single intragastric administration. […] After the animals were narcotized with isoflurane using an anaesthesia machine for small animals, 0.3 mL of whole blood was drawn from fundus venous plexus, and placed in a heparin anticoagulant tube. At 4° C., the sample was centrifuged at 4000 rpm for 5 min, and plasma was transferred to a centrifuge tube and preserved at −80° C. until the analysis was started. The sample in plasma was extracted by the protein precipitation method, and the extract liquid was analyzed by LC/MS/MS.
# [4] = 0.5% MC, FDA pharmacology review, cited from earlier work
# [5] = rats, 30 mg/kg PO; FDA pharmacology review; cited from earlier work
# [6] = dogs, male, FDA pharmacology review, cited from earlier work
smiles,measurement,setting,value
"N#CC[C@H](C1CCCC1)n1cc(-c2ncnc3[nH]ccc23)c(N)n1 [(3R)-3-[3-amino-4-(7H-pyrrolo[2,3-d]pyrimidin-4-yl)-1H-pyrazol-1-yl]-3-cyclopentylpropanenitrile hydrochloride]",TGI (%) 3 d,Ba/F3-JAK2V617F tumor; 25 mg/kg PO BID,45.45%
same,TGI (%) 7 d,Ba/F3-JAK2V617F tumor; 25 mg/kg PO BID,16.85%
same,TGI (%) 10 d,Ba/F3-JAK2V617F tumor; 25 mg/kg PO BID,54.49%
same,TGI (%) 14 d,Ba/F3-JAK2V617F tumor; 25 mg/kg PO BID,40.74%
same,TGI (%) 3 d,Ba/F3-JAK2V617F tumor; 50 mg/kg PO BID,41.77%
same,TGI (%) 7 d,Ba/F3-JAK2V617F tumor; 50 mg/kg PO BID,43.60%
same,TGI (%) 10 d,Ba/F3-JAK2V617F tumor; 50 mg/kg PO BID,65.19%
same,TGI (%) 14 d,"Ba/F3-JAK2V617F tumor; 50 mg/kg PO BID, hydrochloride",68.40%
same,TGI (%) 14 d,"Ba/F3-JAK2V617F tumor; 50 mg/kg PO BID, listed as hydrochloride of the compound of Example 5, hydrochloride",68.4%
same,TGI (%) 3 d,Ba/F3-JAK2V617F tumor; 100 mg/kg PO BID,91.62%
same,TGI (%) 7 d,Ba/F3-JAK2V617F tumor; 100 mg/kg PO BID,79.76%
same,TGI (%) 10 d,Ba/F3-JAK2V617F tumor; 100 mg/kg PO BID,89.37%
same,TGI (%) 14 d,"Ba/F3-JAK2V617F tumor; 100 mg/kg PO BID, hydrochloride",85.76%
same,TGI (%) 14 d,"Ba/F3-JAK2V617F tumor; 100 mg/kg PO BID, listed as hydrochloride of the compound of Example 5, hydrochloride",85.8%
same,inhibitory effect on Ba/F3-JAK2V617F tumor growth,"Ba/F3-JAK2V617F tumor; 25, 50, 100 mg/kg PO BID for 14 days",dose-dependent inhibitory effect
same,half-life,[1],117 min
same,AUC(0-inf),[1]; read-out: AUCINFobs,5760 ng·h/mL
same,Cmax,[1]; read-out: Cmax,2350 ng/mL
same,Tmax,[1]; read-out: Tmax,19.8 min
"N#CCC(C1CCCC1)n1cc(-c2ncnc3[nH]ccc23)c(N)n1 (stereo not drawn) [Example 1, 3-[3-amino-4-(7H-pyrrolo[2,3-d]pyrimidin-4-yl)-1H-pyrazol-1-yl]-3-cyclopentylpropanenitrile]",IC50,[2],< 20 nM
same,IC50,[3],< 20 nM
"CCNc1nn(C(CC#N)C2CCCC2)cc1-c1ncnc2[nH]ccc12 (stereo not drawn) [Example 7, 3-[3-ethylamino-4-(7H-pyrrolo[2,3-d]pyrimidin-4-yl)-1H-pyrazol-1-yl]-3-cyclopentylpropanenitrile]",IC50,[2],< 20 nM
same,IC50,[3],< 20 nM
same,IC50,HEL (JAK2^V617F) cells,< 200 nM
same,AUC(0-inf),in vivo,20 ng·h/mL
same,Cmax,in vivo,13.5 ng/mL
same,Tmax,in vivo,19.8 min
same,half-life,in vivo,30 min
N#CC[C@H](C1CCCC1)n1cc(-c2ncnc3[nH]ccc23)cn1 [Ruxolitinib Phosphate],AUCINF—obs,"[4]; female rats, oral 15 mg/kg",336 ng·h/mL
same,Cmax,"[4]; female rats, oral 15 mg/kg",267 ng/mL
same,T1/2,"[4]; female rats, oral 15 mg/kg",119 min
same,Tmax,"[4]; female rats, oral 15 mg/kg",30 min
same,AUCINF—obs,"[4]; male rats, oral 5 mg/kg",3.33 ng·h/mL
same,Cmax,"[4]; male rats, oral 5 mg/kg",4.69 ng/mL
same,Tmax,"[4]; male rats, oral 5 mg/kg",30 min
N#CC[C@H](C1CCCC1)n1cc(-c2ncnc3[nH]ccc23)cn1 [Ruxolitinib],AUCINFobs,[5],1345 ng·h/mL
same,Cmax,[5],1143 ng/mL
same,Tmax,[5],30 min
same,t1/2,[5],73.2 min
same,AUCINF—obs,[6]; IV 5 mg/kg,13776 ng·h/mL
same,Cl_obs,[6]; IV 5 mg/kg,8 mL/min/kg
same,Vss_obs,[6]; IV 5 mg/kg,1.1 L/kg
same,t1/2,[6]; IV 5 mg/kg,150 min
same,AUCINF—obs,[6]; PO 10 mg/kg,15716 ng·h/mL
same,Cmax,[6]; PO 10 mg/kg,3519 ng/mL
same,F,[6]; PO 10 mg/kg,57%
same,Tmax,[6]; PO 10 mg/kg,120 min
same,t1/2,[6]; PO 10 mg/kg,132 min
